Results reported in US8183239B2, “Substituted piperazines and piperidines as modulators of the neuropeptide Y2 receptor” (Janssen Pharmaceutica NV, priority 2005, dated 2012).

Molecular target: T1, Y2 receptors (Homo sapiens, UniProt P49146)
T1 construct: endogenous in cells; host or cells: KAN-Ts cells (membranes)
T1 sequence (P49146 1-381): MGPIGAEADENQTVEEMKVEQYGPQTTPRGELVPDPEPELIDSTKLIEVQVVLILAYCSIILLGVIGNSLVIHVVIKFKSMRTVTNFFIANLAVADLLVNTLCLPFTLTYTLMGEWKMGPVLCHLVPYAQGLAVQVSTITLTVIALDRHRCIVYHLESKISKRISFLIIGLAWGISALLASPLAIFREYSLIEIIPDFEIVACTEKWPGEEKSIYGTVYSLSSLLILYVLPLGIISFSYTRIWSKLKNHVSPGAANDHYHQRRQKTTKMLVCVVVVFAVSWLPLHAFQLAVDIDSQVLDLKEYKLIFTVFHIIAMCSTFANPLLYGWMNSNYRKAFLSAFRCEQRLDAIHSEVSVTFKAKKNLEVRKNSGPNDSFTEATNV
Test: Radioligand binding assay ([125I]PYY, KAN-Ts cell membranes)
Settings: Table 1, [125I]PYY 80 pM, average of results, read-out: IC50
Outline: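 Membranes from KAN-Ts cells endogenously expressing Y2 incubated 1 h at rt with 80 pM [^125I]PYY ± test compound in HEPES buffer with NaCl, Ca^2+ and Mg^2+. Bound radioactivity collected by filtration; specific binding defined with […]. IC50 from sigmoidal fit, averaged over 3-8 duplicate experiments.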

| Compound | IC50 |
| --- | --- |
| COC(=O)C(c1ccccc1)N1CCN(c2ccc(NC(=O)c3ccc[nH]3)cc2)CC1 (stereo not drawn) [Example 104, Phenyl-(4-{4-[(1H-pyrrole-2-carbonyl)-amino]-phenyl}-piperazin-1-yl)-acetic acid methyl ester] | 7 µM |
| COC(=O)C(c1ccccc1)N1CCN(c2ccc(NC(=O)c3ccccn3)cc2)CC1 (stereo not drawn) [Example 106, Phenyl-(4-{4-[(pyridine-2-carbonyl)-amino]-phenyl}-piperazin-1-yl)-acetic acid methyl ester] | 12 µM |
| COC(=O)C(c1ccccc1)N1CCN(c2ccc(NC(=O)c3cncnc3)cc2)CC1 (stereo not drawn) [Example 108, Phenyl-(4-{4-[(pyrimidine-5-carbonyl)-amino]-phenyl}-piperazin-1-yl)-acetic acid methyl ester] | 26 µM |
| COC(=O)C(c1ccccc1)N1CCN(c2ccc(NC(=O)CC(C)C)cc2)CC1 (stereo not drawn) [Example 109, {4-[4-(3-Methyl-butyrylamino)-phenyl]-piperazin-1-yl}-phenyl-acetic acid methyl ester] | 6.1 µM |
| COC(=O)C(c1ccccc1)N1CCN(c2ccc(NC(=O)c3ccccc3Br)cc2)CC1 (stereo not drawn) [Example 110, {4-[4-(2-Bromo-benzoylamino)-phenyl]-piperazin-1-yl}-phenyl-acetic acid methyl ester] | 2.4 µM |
| CCN(CC)C(=O)C(c1ccccc1)N1CCN(c2ccc(NC(=O)c3ccccc3Br)cc2F)CC1 (stereo not drawn) [Example 111, 2-Bromo-N-{4-[4-(diethylcarbamoyl-phenyl-methyl)-piperazin-1-yl]-3-fluoro-phenyl}-benzamide] | 0.34 µM |
| CCC(CC)C(=O)N(C)c1ccc(N2CCN(C(C(=O)N(CC)CC)c3ccccc3)CC2)c(F)c1 (stereo not drawn) [Example 112, N-{4-[4-(Diethylcarbamoyl-phenyl-methyl)-piperazin-1-yl]-3-fluoro-phenyl}-2-ethyl-N-methyl-butyramide] | 0.45 µM |
| CCNC(=O)C(c1ccccc1)N1CCN(c2ccc(C(=O)NC(CC)CC)cc2F)CC1 (stereo not drawn) [Example 113, 4-[4-(Ethylcarbamoyl-phenyl-methyl)-piperazin-1-yl]-N-(1-ethyl-propyl)-3-fluoro-benzamide] | 5.75 µM |
| COC(=O)C(c1ccccc1)N1CCN(c2ccc(C(=O)Nc3ccccc3)cc2)CC1 (stereo not drawn) [Example 114, Phenyl-[4-(4-phenylcarbamoyl-phenyl)-piperazin-1-yl]-acetic acid methyl ester] | 10 µM |
| CCC(CC)NC(=O)c1ccc(N2CCN(C(C(=O)OC)c3ccccc3)CC2)c(F)c1 (stereo not drawn) [Example 115, {4-[4-(1-Ethyl-propylcarbamoyl)-2-fluoro-phenyl]-piperazin-1-yl}-phenyl-acetic acid methyl ester] | 3.2 µM |
| CCC(CC)NC(=O)c1ccc(N2CCN(C(C(=O)OC)c3ccccc3)CC2)cc1 (stereo not drawn) [Example 116, {4-[4-(1-Ethyl-propylcarbamoyl)-phenyl]-piperazin-1-yl}-phenyl-acetic acid methyl ester] | 10 µM |
| CCNC(=O)C(c1ccccc1)C1CCN(c2ccc(C(=O)NC(CC)CC)cc2F)CC1 (stereo not drawn) [Example 117, 4-[4-(Ethylcarbamoyl-phenyl-methyl)-piperidin-1-yl]-N-(1-ethyl-propyl)-3-fluoro-benzamide] | 10 µM |
| CC(=O)N(c1ccccc1)c1ccc(N2CCN(C(C(=O)Nc3ccc4c(c3)CCC4)c3ccccc3)CC2)cc1 (stereo not drawn) [Example 118, 2-{4-[4-(Acetyl-phenyl-amino)-phenyl]-piperazin-1-yl}-N-indan-5-yl-2-phenyl-acetamide] | 3.4 µM |
| CCC(C)C(=O)Nc1ccc(N2CCC(C(C(=O)OC)c3ccccc3)CC2)cc1 (stereo not drawn) [Example 120, {1-[4-(2-Methyl-butyrylamino)-phenyl]-piperidin-4-yl}-phenyl-acetic acid methyl ester] | 2.4 µM |
| CCN(CC)C(=O)C(c1ccccc1)N1CCN(c2ccc(NC(=O)[C@H]3CCOC3)cc2C#N)CC1 (stereo partly drawn) [Example 122, (S)-Tetrahydro-furan-3-carboxylic acid {3-cyano-4-[4-(diethylcarbamoyl-phenyl-methyl)-piperazin-1-yl]-phenyl}-amide] | 0.008 µM |
| CCN(CC)C(=O)C(c1ccccc1)N1CCN(c2ccc(NC(=O)[C@@H]3CCOC3)cc2C#N)CC1 (stereo partly drawn) [Example 123, (R)-Tetrahydro-furan-3-carboxylic acid {3-cyano-4-[4-(diethylcarbamoyl-phenyl-methyl)-piperazin-1-yl]-phenyl}-amide] | 0.017 µM |
| CCC(CC)C(=O)Nc1ccc(N2CCN(C(C(=O)N(CC)CC)c3cc(Br)ccc3F)CC2)c(F)c1 (stereo not drawn) [Example 124, N-(4-{4-[(5-Bromo-2-fluoro-phenyl)-diethylcarbamoyl-methyl]-piperazin-1-yl}-3-fluoro-phenyl)-2-ethyl-butyramide] | 0.015 µM |

| Compound | IC50 |
| --- | --- |
| CCN(CC)C(=O)C(c1ccccc1)N1CCN(c2ccc(NC(=O)C3(c4ccccc4)CCCC3)cc2F)CC1 (stereo not drawn) [Example 125, 1-Phenyl-cyclopentanecarboxylic acid {4-[4-(diethylcarbamoyl-phenyl-methyl)-piperazin-1-yl]-3-fluoro-phenyl}-amide] | 0.02 µM |
| CCN(CC)C(=O)C(c1ccccc1)C1CCN(c2ccc(NC(=O)[C@H]3CCOC3)cc2F)CC1 (stereo partly drawn) [Example 126, (S)-Tetrahydro-furan-3-carboxylic acid {4-[4-(diethylcarbamoyl-phenyl-methyl)-piperidin-1-yl]-3-fluoro-phenyl}-amide] | 0.025 µM |
| CCOC(=O)C(c1ccccc1)N1CCN(c2ccc(NC(=O)C(CC)CC)cc2F)CC1 (stereo not drawn) [Example 127, {4-[4-(2-Ethyl-butyrylamino)-2-fluoro-phenyl]-piperazin-1-yl}-phenyl-acetic acid ethyl ester] | 0.02 µM |
| CCN(CC)C(=O)C(c1ccccc1)N1CCN(c2ccc(NC(=O)c3ccnn3CC)cc2F)CC1 (stereo not drawn) [Example 128, 2-Ethyl-2H-pyrazole-3-carboxylic acid {4-[4-(diethylcarbamoyl-phenyl-methyl)-piperazin-1-yl]-3-fluoro-phenyl}-amide] | 0.035 µM |
| CCC(CC)C(=O)Nc1ccc(N2CCN(C(C(=O)N(CC)CC)c3cccc(OC)c3)CC2)c(F)c1 (stereo not drawn) [Example 129, N-(4-{4-[Diethylcarbamoyl-(3-methoxy-phenyl)-methyl]-piperazin-1-yl}-3-fluoro-phenyl)-2-ethyl-butyramide] | 0.04 µM |
| CCNC(=O)C(c1ccccc1)C1CCN(c2ccc(NC(=O)C3CCCC3)cc2C#N)CC1 (stereo not drawn) [Example 130, Cyclopentanecarboxylic acid {3-cyano-4-[4-(ethylcarbamoyl-phenyl-methyl)-piperidin-1-yl]-phenyl}-amide] | 0.04 µM |
| CCN(CC)C(=O)C(c1ccccc1)C1CCN(c2ccc(NC(=O)c3cccnc3C)cc2F)CC1 (stereo not drawn) [Example 131, N-{4-[4-(Diethylcarbamoyl-phenyl-methyl)-piperidin-1-yl]-3-fluoro-phenyl}-2-methyl-nicotinamide] | 0.05 µM |
| CCN(CC)C(=O)C(c1ccccc1)C1CCN(c2ccc(NC(=O)[C@@H]3CCOC3)cc2F)CC1 (stereo partly drawn) [Example 132, (R)-Tetrahydro-furan-3-carboxylic acid {4-[4-(diethylcarbamoyl-phenyl-methyl)-piperidin-1-yl]-3-fluoro-phenyl}-amide] | 0.055 µM |
| CCNC(=O)C(c1ccccc1)C1CCN(c2ccc(NC(=O)[C@H]3CCOC3)cc2C#N)CC1 (stereo partly drawn) [Example 133, (S)-Tetrahydro-furan-3-carboxylic acid {3-cyano-4-[4-(ethylcarbamoyl-phenyl-methyl)-piperidin-1-yl]-phenyl}-amide] | 0.06 µM |
| CCN(CC)C(=O)C(c1ccccc1)C1CCN(c2ccc(NC(=O)Cc3cscc3C)cc2F)CC1 (stereo not drawn) [Example 134, N,N-Diethyl-2-(1-{2-fluoro-4-[2-(4-methyl-thiophen-3-yl)-acetylamino]-phenyl}-piperidin-4-yl)-2-phenyl-acetamide] | 0.08 µM |
| CCN(CC)C(=O)C(c1ccccc1)N1CCN(c2ccc(NC(=O)C3CCC3)cc2F)CC1 (stereo not drawn) [Example 135, Cyclobutanecarboxylic acid {4-[4-(diethylcarbamoyl-phenyl-methyl)-piperazin-1-yl]-3-fluoro-phenyl}-amide] | 0.06 µM |
| CCN(CC)C(=O)C(c1ccccc1)N1CCN(c2ccc(NC(=O)C3(C)CCCCC3)cc2F)CC1 (stereo not drawn) [Example 136, 1-Methyl-cyclohexanecarboxylic acid {4-[4-(diethylcarbamoyl-phenyl-methyl)-piperazin-1-yl]-3-fluoro-phenyl}-amide] | 0.07 µM |
| CC[C@H](C)C(=O)Nc1ccc(N2CCN(C(C(=O)N(CC)CC)c3ccccc3)CC2)c(F)c1 (stereo partly drawn) [Example 137, (S)—N-{4-[4-(Diethylcarbamoyl-phenyl-methyl)-piperazin-1-yl]-3-fluoro-phenyl}-2-methyl-butyramide] | 0.07 µM |
| CCC(CC)C(=O)Nc1ccc(N2CCC(=C(C(=O)N(CC)CC)c3cccc(F)c3)CC2)c(F)c1 [Example 138, N-(4-{4-[Diethylcarbamoyl-(3-fluoro-phenyl)-methylene]-piperidin-1-yl}-3-fluoro-phenyl)-2-ethyl-butyramide] | 0.07 µM |
| CCN(CC)C(=O)C(c1ccccc1)N1CCN(c2ccc(NC(=O)C(C)(C)c3ccc(Cl)cc3)cc2F)CC1 (stereo not drawn) [Example 139, 2-(4-Chloro-phenyl)-N-{4-[4-(diethylcarbamoyl-phenyl-methyl)-piperazin-1-yl]-3-fluoro-phenyl}-isobutyramide] | 0.072 µM |
| CCN(CC)C(=O)C(c1ccccc1)C1CCN(c2ccc(NC(=O)C(C)C)cc2F)CC1 (stereo not drawn) [Example 140, N-{4-[4-(Diethylcarbamoyl-phenyl-methyl)-piperidin-1-yl]-3-fluoro-phenyl}-isobutyramide] | 0.08 µM |
